Test results reported in patent publication US8937176B2, “Compounds” (Boehringer Ingelheim International GmbH, priority 2011, dated 2015).

Target: T1, human recombinant mGluR5 (Homo sapiens, UniProt P41594)
T1 construct: expressed in transfected cells; host or cells: HEK 293 cell line
Experiment: Positive modulation of mGluR5, calcium based FLIPR assay in HEK 293 cells
Conditions: EC50 of the modulation; HEK 293 cell line expressing human recombinant mGluR5; glutamate at approximately 5% basal stimulation; peak height of Ca release fluorescence signal
Procedure: The positive modulation of mGluR5 is measured in a HEK 293 cell line expressing human recombinant mGluR5 and is detected with calcium based FLIPR assay. The cells are cultured with DMEM supplemented with 10% FCS, 2 μg/mL tetracycline, 100 μg/mL hygromycin and 500 μg/mL gneticin. The cell culture media is exchanged for tetracycline-free cell culture media 3-7 days before the assay. One day before the assay the cell culture medium is exchanged to DMEM without glutamine and phenol red and supplemented with 10% FCS, 100 μg/mL hygromycin and 500 μg/mL geneticin. On the assay day, the medium of the subconfluent cultures is removed and the cells are detached by addition of 2.5 ml EDTA(0.02%) per 175 cm2 culture flask for 1 minute. The cells are resuspend in Ringer solution (140 mM NaCl, 5 mM KCl, 2.5 mM CaCl2, 1.5 mM MgCl2, 5 mM Glucose, 10 mM Hepes; adjusted to pH 7.4 with NaOH), pooled and Ringer solution added to adjust the volume to 50 mL. The cell suspension is centrifuged for […] at 1500 U/min (425 g). The supernatant is removed and the cells washed a second time with 50 ml fresh Ringer solution and centrifuged again as before. The supernatant is again removed and the pellet resuspended in Ringer solution to 1,000,000 cells/ml (1×10^6 cells/mL). The cells are plated onto BD BioCoat Poly-D-Lysine 384 well plates (20.000 cells/well; 20 μl/well). The lid covered plates are then incubated until use at 37° C./10% CO2. For dye loading, 20 μl of Calcium-4 assay kit solution (prepared according to the manufacturer's description in Ringer solution) are added to the cells and the plates are incubated for 80 min 37° C. and then 10 min at room temperature.
Controls, Compound Dilution and Assay Execution:
Each assay plate contained wells with “high” and “low” controls:
Low controls 1% DMSO/ringer solution+basal glutamate activation (defined as 100% CTL).
High controls 10 μM CDPPB+basal glutamate activation (defined as 200% CTL).
Test compounds are dissolved and diluted in DMSO to 100-fold the desired concentrations. In a second step, the compounds are diluted in Ringer solution such that the compounds are 4-fold more concentrated than the desired final assay concentration. The final DMSO concentration was 1%.
20 μl of each compound solution are then transferred to the assay plate and the Ca2+ kinetic is measured to determine any intrinsic compound activity. After 5 min incubation in the FLIPR device, the second stimulation with 20 μl of glutamate in Ringer solution (glutamate concentration adjusted to approximately 5% basal stimulation of the maximal possible glutamate effect) is added and the kinetic Ca2+ response of the wells was measured for the modulation effect.
The peak height of the Ca release related fluorescence signal (9-66) is used for the EC50. The EC50 of the modulation is calculated over a nonlinear regression with GraphPad Prism (Table 1).

T1 sequence (P41594 21-1212): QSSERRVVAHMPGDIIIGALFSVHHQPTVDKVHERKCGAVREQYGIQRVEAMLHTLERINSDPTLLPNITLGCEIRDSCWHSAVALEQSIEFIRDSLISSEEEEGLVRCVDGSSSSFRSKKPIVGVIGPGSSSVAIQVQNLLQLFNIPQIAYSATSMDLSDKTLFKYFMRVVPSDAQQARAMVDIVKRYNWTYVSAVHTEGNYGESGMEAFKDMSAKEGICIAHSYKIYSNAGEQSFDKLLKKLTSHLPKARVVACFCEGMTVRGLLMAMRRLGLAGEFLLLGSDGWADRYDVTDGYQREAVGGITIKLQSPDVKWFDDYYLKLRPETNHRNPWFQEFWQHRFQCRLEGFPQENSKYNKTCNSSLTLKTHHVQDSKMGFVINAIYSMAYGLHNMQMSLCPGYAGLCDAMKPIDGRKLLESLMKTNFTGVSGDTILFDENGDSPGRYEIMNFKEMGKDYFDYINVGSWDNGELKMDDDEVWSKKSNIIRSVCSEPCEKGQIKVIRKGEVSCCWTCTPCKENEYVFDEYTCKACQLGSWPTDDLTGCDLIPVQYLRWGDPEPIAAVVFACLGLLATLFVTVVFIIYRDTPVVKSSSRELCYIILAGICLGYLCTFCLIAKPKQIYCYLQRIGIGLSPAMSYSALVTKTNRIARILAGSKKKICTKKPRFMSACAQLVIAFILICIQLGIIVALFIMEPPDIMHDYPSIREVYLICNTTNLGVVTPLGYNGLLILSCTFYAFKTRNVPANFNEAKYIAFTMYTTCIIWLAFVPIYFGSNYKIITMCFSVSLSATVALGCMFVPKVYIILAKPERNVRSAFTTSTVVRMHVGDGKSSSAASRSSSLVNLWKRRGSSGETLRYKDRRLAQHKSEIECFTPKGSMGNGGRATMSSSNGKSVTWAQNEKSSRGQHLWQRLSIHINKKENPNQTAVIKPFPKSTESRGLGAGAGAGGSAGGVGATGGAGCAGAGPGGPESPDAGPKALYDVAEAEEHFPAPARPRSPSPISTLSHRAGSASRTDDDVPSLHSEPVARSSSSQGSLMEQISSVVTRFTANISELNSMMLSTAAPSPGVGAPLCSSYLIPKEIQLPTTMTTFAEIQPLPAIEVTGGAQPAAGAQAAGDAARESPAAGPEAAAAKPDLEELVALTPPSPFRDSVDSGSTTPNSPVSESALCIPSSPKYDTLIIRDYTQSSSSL

EC50 | SMILES
0.112 µM | COc1ccc(-c2cn(-c3ccccc3)c(CC(=O)N3CCN(c4ncccn4)CC3)n2)cc1 [Example 7.04.33.]
0.041 µM | COc1cc(N2CCN(C(=O)Cc3nc(-c4ccc(F)c(C)c4)cn3-c3ccc(F)cc3)CC2)ncn1 [Example 7.04.26.]
0.042 µM | COc1ccnc(N2CCN(C(=O)Cc3nc(-c4ccc(C)cc4)cn3-c3ccc(F)cc3)CC2)c1 [Example 7.04.05.]
0.019 µM | COc1cc(N2CCN(C(=O)Cc3nc(-c4ccc(F)c(C)c4)cn3-c3ccccc3)CC2)ncn1 [Example 7.04.43.]
0.146 µM | COc1ccc(-c2cn(-c3ccccc3)c(CC(=O)N3CCN(c4cc(OC)ccn4)CC3)n2)cc1 [Example 7.04.31.]
0.119 µM | COc1ccc(-c2cn(-c3ccccc3)c(CC(=O)N3CCN(c4cc(OC)ncn4)CC3)n2)cc1 [Example 7.04.29.]
0.041 µM | Cc1ccc(-c2cn(-c3ccc(F)cc3)c(CC(=O)N3CCN(c4ncncn4)CC3)n2)cc1 [Example 7.04.08.]
0.155 µM | O=C(Cc1nc(-c2ccccc2)cn1-c1ccccc1)N1CCN(c2ncccn2)CC1 [Example 7.01.01., 2-(1,4-diphenyl-1H-imidazol-2-yl)-1-(4-pyrimidin-2-yl-piperazin-1-yl)-ethanone]
0.211 µM | Cc1ccc(-n2cc(-c3ccccc3)nc2CC(=O)N2CCN(c3ncccn3)CC2)cc1 [Example 7.01.04.]
0.057 µM | COc1ccnc(N2CCN(C(=O)Cc3nc(-c4ccc(F)cc4)cn3-c3ccc(F)cc3)CC2)c1 [Example 7.03.01., 2-(1,4-Bis-(4-fluoro-phenyl)-1H-imidazol-2-yl)-1-(4-(4-methoxy-pyridin-2-yl)-piperazin-1-yl)-ethanone]
0.021 µM | Cc1cc(-c2cn(-c3ccc(F)cc3)c(CC(=O)N3CCN(c4ncccn4)CC3)n2)ccc1Cl [Example 7.04.17.]
0.04 µM | COc1ccc(-c2cn(-c3ccc(F)cc3)c(CC(=O)N3CCN(c4cccnn4)CC3)n2)cc1 [Example 7.04.11.]
0.036 µM | Cc1ccc(-c2cn(-c3ccc(F)cc3)c(CC(=O)N3CCN(c4ccccn4)CC3)n2)cc1 [Example 7.04.06.]
0.021 µM | COc1cnc(N2CCN(C(=O)Cc3nc(-c4ccc(F)c(C)c4)cn3-c3ccccc3)CC2)nc1 [Example 7.04.46.]
0.035 µM | Cc1cc(-c2cn(-c3ccc(F)cc3)c(CC(=O)N3CCN(c4ncncn4)CC3)n2)ccc1Cl [Example 7.04.22.]
0.037 µM | COc1ccc(-c2cn(-c3ccc(F)cc3)c(CC(=O)N3CCN(c4ccccn4)CC3)n2)cc1 [Example 7.04.13.]
0.174 µM | CCn1cc(-c2ccc(F)c(C)c2)nc1CC(=O)N1CCN(c2ncccn2)CC1 [Example 7.05.01, 2-(1-Ethyl-4-(4-fluoro-3-methyl-phenyl)-1H-imidazol-2-yl)-1-(4-pyrimidin-2-yl-piperazin-1-yl)-ethanone]
0.018 µM | Cc1ccc(-c2cn(-c3ccc(F)cc3)c(CC(=O)N3CCN(c4ncccn4)CC3)n2)cc1 [Example 7.04.04.]
0.044 µM | COc1ccnc(N2CCN(C(=O)Cc3nc(-c4ccc(F)c(C)c4)cn3-c3ccc(F)cc3)CC2)c1 [Example 7.04.27.]
0.024 µM | Cc1cc(-c2cn(-c3ccccc3)c(CC(=O)N3CCN(c4ccccn4)CC3)n2)ccc1F [Example 7.04.42.]
0.143 µM | COc1cccc(-c2cn(-c3ccc(F)cc3)c(CC(=O)N3CCN(c4ncncn4)CC3)n2)c1 [Example 7.04.40.]
0.114 µM | COc1cc(N2CCN(C(=O)Cc3nc(-c4ccc(C)cc4)cn3-c3ccc(F)cc3)CC2)ncn1 [Example 7.04.07.]
0.042 µM | Cc1cc(-c2cn(-c3ccc(F)cc3)c(CC(=O)N3CCN(c4ccccn4)CC3)n2)ccc1F [Example 7.04.23.]
0.095 µM | COc1ccc(-c2cn(-c3ccccc3)c(CC(=O)N3CCN(c4ncc(F)cn4)CC3)n2)cc1 [Example 7.04.34.]
0.112 µM | O=C(Cc1nc(-c2ccc(F)cc2)cn1-c1ccc(F)cc1)N1CCN(c2cccnn2)CC1 [Example 7.03.02.]
0.114 µM | COc1cc(N2CCN(C(=O)Cc3nc(-c4ccc(Cl)c(C)c4)cn3-c3ccc(F)cc3)CC2)ncn1 [Example 7.04.21.]

EC50 | SMILES
0.088 µM | COc1ccc(-c2cn(-c3ccc(OC)cc3)c(CC(=O)N3CCN(c4ncccn4)CC3)n2)cc1 [Example 7.01.03.]
0.028 µM | COc1ccnc(N2CCN(C(=O)Cc3nc(-c4ccc(F)c(C)c4)cn3-c3ccccc3)CC2)c1 [Example 7.04.45.]
0.076 µM | COc1ccc(-c2cn(-c3ccccc3)c(CC(=O)N3CCN(c4ncc(OC)cn4)CC3)n2)cc1 [Example 7.04.35.]
0.033 µM | COc1ccc(-c2cn(-c3ccc(F)cc3)c(CC(=O)N3CCN(c4cc(OC)ncn4)CC3)n2)cc1 [Example 7.04.14.]
0.013 µM | Cc1cc(-c2cn(-c3ccc(F)cc3)c(CC(=O)N3CCN(c4cccnn4)CC3)n2)ccc1Cl [Example 7.04.19.]
0.092 µM | COc1cccc(-c2cn(-c3ccc(F)cc3)c(CC(=O)N3CCN(c4ccccn4)CC3)n2)c1 [Example 7.04.41.]
0.08 µM | COc1cc(N2CCN(C(=O)Cc3nc(-c4ccc(F)cc4)cn3-c3ccc(F)cc3)CC2)ncn1 [Example 7.04.02.]
0.02 µM | COc1ccc(-c2cn(-c3ccc(F)cc3)c(CC(=O)N3CCN(c4ncccn4)CC3)n2)cc1 [Example 7.04.10.]
0.054 µM | O=C(Cc1nc(-c2ccc(F)cc2)cn1-c1ccc(F)cc1)N1CCN(c2ccccn2)CC1 [Example 7.02.01., 2-(1,4-Bis-(4-fluoro-phenyl)-1H-imidazol-2-yl)-1-(4-pyridin-2-yl-piperazin-1-yl)-ethanonene]
0.046 µM | COc1cccc(-c2cn(-c3ccc(F)cc3)c(CC(=O)N3CCN(c4ncccn4)CC3)n2)c1 [Example 7.04.37.]
0.108 µM | COc1cccc(-c2cn(-c3ccc(F)cc3)c(CC(=O)N3CCN(c4cc(OC)ncn4)CC3)n2)c1 [Example 7.04.38.]
0.02 µM | COc1cnc(N2CCN(C(=O)Cc3nc(-c4ccc(C)cc4)cn3-c3ccc(F)cc3)CC2)nc1 [Example 7.04.09.]
0.011 µM | Cc1cc(-c2cn(-c3ccccc3)c(CC(=O)N3CCN(c4ncccn4)CC3)n2)ccc1F [Example 7.04.44.]
0.021 µM | Cc1cc(-c2cn(-c3ccc(F)cc3)c(CC(=O)N3CCN(c4ncccn4)CC3)n2)ccc1F [Example 7.04.25.]
0.052 µM | O=C(Cc1nc(-c2ccc(F)cc2)cn1-c1ccc(F)cc1)N1CCN(c2ncncn2)CC1 [Example 7.04.01., 2-(1,4-Bis-(4-fluoro-phenyl)-1H-imidazol-2-yl)-1-(4-[1,3,5]triazin-2-yl-piperazin-1-yl)-ethanone]
0.091 µM | COc1ccc(-c2cn(-c3ccc(F)cc3)c(CC(=O)N3CCN(c4ncncn4)CC3)n2)cc1 [Example 7.04.15.]
0.064 µM | Cc1cc(-c2cn(-c3ccc(F)cc3)c(CC(=O)N3CCN(c4cccnn4)CC3)n2)ccc1F [Example 7.04.24.]
0.057 µM | COc1ccc(-c2cn(-c3ccc(F)cc3)c(CC(=O)N3CCN(c4ncc(F)cn4)CC3)n2)cc1 [Example 7.04.36.]
0.024 µM | Cc1cc(-c2cn(-c3ccc(F)cc3)c(CC(=O)N3CCN(c4ncncn4)CC3)n2)ccc1F [Example 7.04.28.]
0.042 µM | Cc1ccc(-c2cn(-c3ccc(F)cc3)c(CC(=O)N3CCN(c4cccnn4)CC3)n2)cc1 [Example 7.04.03.]
0.047 µM | COc1ccc(-c2cn(-c3ccc(F)cc3)c(CC(=O)N3CCN(c4ncc(OC)cn4)CC3)n2)cc1 [Example 7.04.16.]
0.281 µM | COc1ccc(-c2cn(-c3ccccc3)c(CC(=O)N3CCN(c4ncncn4)CC3)n2)cc1 [Example 7.04.32.]
0.069 µM | COc1ccnc(N2CCN(C(=O)Cc3nc(-c4ccc(Cl)c(C)c4)cn3-c3ccc(F)cc3)CC2)c1 [Example 7.04.20.]
0.04 µM | COc1ccc(-c2cn(-c3ccc(F)cc3)c(CC(=O)N3CCN(c4cc(OC)ccn4)CC3)n2)cc1 [Example 7.04.12.]
0.03 µM | Cc1cc(-c2cn(-c3ccc(F)cc3)c(CC(=O)N3CCN(c4ccccn4)CC3)n2)ccc1Cl [Example 7.04.18.]
0.043 µM | O=C(Cc1nc(-c2ccc(F)cc2)cn1-c1ccc(F)cc1)N1CCN(c2ncccn2)CC1 [Example 7.01.02.]
